{"source": "patent US20240418723A1", "about": "“SEQUENTIAL TREATMENTS AND BIOMARKERS TO REVERSE RESISTANCE TO KINASE INHIBITORS” (Queen Mary University of London, priority 2021, published 2024)", "key": {"primary AML cells": {"test_system": "primary AML cells", "test": "Ex-vivo sequential treatment of primary AML blasts co-cultured on MS-5 stromal feeder layer, Guava ViaCount, CDI", "assay_type": "cell-based, human", "experimental": "We then examined whether, besides cell lines, LSD1i could also sensitise primary AML to kinase inhibitor treatment. We obtained CDI values from 17 AML blasts samples (6 normal, 5 complex and 6 MLL karyotypes) treated for 5 days with LSD1i followed by 3 days with either MEKi, PKC/FLT3i or DMSO control (FIGS. 2, H and I). Primary AML cells were cultured and treated in the presence of a feeder layer of bone marrow stromal cells, which, under control conditions, kept cells viable and proliferating throughout the course of the experiment.\n(§1) Umbilical cord bloods were purchased from Anthony Nolan. Mononuclear cells (MNCs) were isolated by Ficoll prior red blood cells (RBC) lysis buffer (BioLegend, catalog #420301). Cells were then stained with CD34 immunomagnetic positive selection kit (EasySep™ Human CD34 Positive Selection Kit II, StemCell technologies, catalog #17856, according to manufacturer instructions). Purity of CD34^+ cells isolated from MNCs was assessed by flow cytometry prior to long term storage in liquid nitrogen. For AML samples, patients gave informed consent for the storage and use of their blood cells for research purposes. Experiments were performed in accordance with the Local Research Ethics Committee, as previously described. Mononuclear cells from peripheral blood or bone marrow biopsies were isolated in the BCI tissue bank facility and stored in liquid nitrogen.\nCell vials were thawed in 37° C. water bath and contents transferred to 15 mL Falcon tubes containing 4 mL of pre-warmed FBS with 40 ng/mL DNase (Sigma Aldrich D4513-1VL). Suspension was centrifuged at 300×g for 8 minutes, then supernatant was removed and cells resuspended in MyeloCult H5100 medium (Stemcell Technologies #05150) containing 1% P/S and supplemented with human IL-3 (Peprotech #200-03), human G-CSF (Peprotech #300-23) and human TPO (#300-18), each to a final concentration of 20 ng/mL. […]"}, "[1]": {"details": "results of clinical trials; unselected AML patient populations; cited from earlier work"}, "P31/Fuj cells": {"test_system": "P31/Fuj cells", "test": "Phosphoproteomics (LC-MS/MS) and kinase network analysis of treated P31/Fuj cells", "procedure": "To study ATRA effect over the phosphoproteome, P31/Fuj cells (10×10^6 cells at 0.5×10^6 cell/mL) were seeded in T75 flask and treated with either Et-OH, 1 μM ATRA or 10 μM ATRA for 5 days. […] For both experiments, cells were collected by centrifugation (1500 rpm for 5 min at 5° C.), then cell pellets were washed twice with ice cold PBS supplemented with phosphatase inhibitors (1 mM Na3VO4, 1 mM NaF) and stored at −80° C. Pellets were processed for phosphoproteomics analysis as indicated below.\nIn brief, cell pellets were lysed in 300 μL of urea buffer (8 M urea in 20 mM HEPES, pH 8.0, supplemented with 1 mM Na3VO4, 1 mM NaF, 1 mM Na4P2O7 and 1 mM P-glycerophosphate). Lysates were further homogenized by sonication (30 cycles of 30 s on 30 s off; Diagenode Bioruptor® Plus) and insoluble material was removed by centrifugation. Protein was quantified using BCA (Thermo Fisher Scientific). Then, 500 μg of protein were subjected to cysteine alkylation using sequential incubation with 10 mM dithiothreitol (DDT) and 16.6 mM iodoacetamide (IAM) for 1 h and 30 min, respectively, at 25° C. with agitation. Trypsin beads (50% slurry of TLCK-trypsin; Thermo Fisher Scientific; Cat. #20230) were equilibrated with 3 washes with 20 mM HEPES (pH 8.0), the urea concentration in the protein suspensions was reduced to 2 M by the addition of 20 mM HEPES (pH 8.0), 100 μL of equilibrated trypsin beads were added and the samples were incubated overnight at 37° C. Trypsin beads were removed by centrifugation (2000×g at 5° C. for 5 min) and the resulting peptide solutions were desalted through Oasis HLB cartridges (Waters) following the manufacturer's indications. Briefly, cartridges were set in a vacuum manifold device and the pressure was adjusted to 5 mmHg. Then, cartridges were conditioned with 1 mL acetonitrile (ACN) and equilibrated with 2.5 mL of wash solution (0.1% trifluoroacetic acid (TFA), 2% ACN). Peptides were loaded in the cartridges and washed with 1 mL of wash solution. Finally, peptides were eluted with 500 μL of glycolic acid buffer 1 (1 M glycolic acid, 5% TFA, 50% ACN). Enrichment of phosphorylated peptides was performed with TiO2 Beads (GL Sciences). The eluents were normalized to 1 mL with glycolic acid buffer 2 (1 M glycolic acid, 5% TFA, 80% ACN) and incubated with 50 μl of TiO2 buffer (50% slurry in 1% TFA) for 5 min at room temperature. TiO2 beads were packed by centrifugation into empty spin columns (Glygen Corporation; Cat. TT2EMT) previously washed with ACN. TiO2 beads were sequentially washed by centrifugation (1500×g for 3 min) with 100 μL of glycolic acid buffer 2, ammonium acetate solution (100 mM ammonium acetate in 25% ACN) and twice with neutral solution (10% ACN). For phosphopeptide elution, spin tips were transferred to fresh tubes, 50 μL of elution solution (5% NH4OH, 7.5% ACN) were added and tips were centrifuged at 1500×g for 3 min. The elution step was repeated a total of 4 times. Finally, samples were snap frozen, dried in a SpeedVac and phosphopeptide pellets were stored at −80° C."}, "acute myeloid leukemia": {"test_system": "acute myeloid leukemia", "details": "Smitheman et al. (2019); cited from earlier work"}, "[2]": {"test_system": "CD34-positive human haematopoietic cells", "test": "FACS analysis of healthy CD34-positive haematopoietic cells after LSD1i and MEKi sequential treatment", "assay_type": "cell-based", "text": "We next tested whether the LSD1i->MEKi sequential treatment may be affecting healthy human haematopoietic (CD34-positive) cells. We observed an increase in the expression of differentiation markers, such as CD11b and CD14, but no effect on the proportion of CD34-positive cells as a result of treatment with LSD1i (FIG. 11, A to C).\nas §1\nFor the establishment of the feeder layer, MS-5 cells were plated onto 6-well plates (for the co-culture with CD34+ cord blood cells) or 96-well plates (for the co-culture with primary AML cells) at a density of 5-10,000 cells/cm^2 (48,000 cells for each well of a 6-well plate, or 3,200 cells for each well of a 96-well plate) with IMDM medium. Cells were then incubated at 37° C. for 48 hours, or until a confluency of approximately 70% was reached, after which they were irradiated with an X-ray source at 680 cGy. Following irradiation, the growth medium was removed and replaced with complete H5100 medium, and cell were incubated at 37° C. for a further 24 hours.\nFollowing recovery, cord blood-derived CD34+ cells or primary AML cells were added to the plates containing the established MS-5 feeder layers. CD34+ cells were added at a density of 20,000 cells/well of a 6-well plate, whilst primary AML cells were added at 8,300 cells/well of a 96-well plate. Cells were then left to incubate at 37° C. and to recover for 4 days, after which treatments were started. […] Following treatment, CD34+ cells were harvested by collecting culture medium in FACS tubes. Adherent cells were detached by briefly incubating with trypsin-EDTA, then also added to the respective FACS tubes. Cells were centrifuged at 300×g for 8 minutes, the supernatant was removed and cells were resuspended in 1 mL PBS+2% FBS, then processed for FACS analysis as described below. For primary AML, cells were resuspended and transferred to separate 96-well plates, after which they were processed for Guava ViaCount analysis, as described below. […]"}, "[3]": {"details": "LSD1i by itself, 2.5 z-score threshold (FIG. 6C)"}, "[4]": {"details": "LSD1i relative to control (FIGS. 6 C, D, 18B)"}, "[5]": {"details": "LSD1i treatment, P31/Fuj (FIG. 19A)"}, "[6]": {"details": "LSD1i 5 days, healthy CD34-positive cells co-cultured with MS5 (FIG. 11)"}}, "data": [{"smiles": "O=C(O)c1ccc(CN2CCC(CN[C@@H]3C[C@H]3c3ccccc3)CC2)cc1", "note": "[GSK2879552]", "values": [{"measurement": "number of primary AML cases primed for MEKi treatment", "setting": "primary AML cells; LSD1i 5 days then MEKi 3 days, of the 17 primary AML cases (FIG. 2H)", "value": 8}, {"measurement": "number of primary AML cases primed for PKC/FLT3i treatment", "setting": "primary AML cells; LSD1i 5 days then PKC/FLT3i (midostaurin) 3 days, out of the 14 tested (FIG. 2I)", "value": 5}, {"measurement": "proportion of AML cases in which LSD1i->MEKi sequential treatment may be particularly effective", "setting": "primary AML cells; LSD1i->MEKi sequential treatment, primary AML", "value": "about 50%"}, {"measurement": "clinical tolerability as single agent", "setting": "[1]", "value": "has side effects"}, {"measurement": "phosphorylation sites affected by kinase inhibitors after LSD1i pre-treatment versus vehicle", "setting": "P31/Fuj cells; 0.5 μM LSD1i 5 days, then 1 μM kinase inhibitor 1 h, P31/Fuj (FIG. 6B)", "value": "fewer phosphorylation sites"}, {"measurement": "c-Myc phosphorylation at S62", "setting": "P31/Fuj cells; LSD1i 5 days, P31/Fuj (FIG. 6F)", "value": "reduced"}, {"measurement": "kinase activities (node centrality)", "setting": "P31/Fuj cells; LSD1i by itself relative to control (FIG. 6D)", "value": "decreased more kinase activities than it increased"}, {"measurement": "number of network axes with decreased enrichment", "setting": "P31/Fuj cells; [3]", "value": 18}, {"measurement": "number of network axes with increased enrichment", "setting": "P31/Fuj cells; [3]", "value": 6}, {"measurement": "effect of PI3K, AKT, MEK and ERK inhibitors in increasing phosphorylation of epigenetic regulators and histones, CDKs, cyclins and DNA repair proteins", "setting": "P31/Fuj cells; LSD1i pre-treatment (FIG. 6H, 19 D, E)", "value": "blunted"}, {"measurement": "circuitries containing AKT and MTOR", "setting": "P31/Fuj cells; [4]", "value": "decrease"}, {"measurement": "circuitries with PKCI and MEK1 (MAP2K1)", "setting": "P31/Fuj cells; [4]", "value": "increased"}, {"measurement": "AHNAK pS5110 phosphorylation", "setting": "P31/Fuj cells; [5]", "value": "increased"}, {"measurement": "PI3K/AKT pathway markers GSK3B pS13 and RPS6 p236, and MAPK pathway marker MAPK3 (ERK1) pT202", "setting": "P31/Fuj cells; [5]", "value": "decreased"}, {"measurement": "kinase inhibitor-induced increase in phosphorylation of LSD1/KDM1A at T95 and S93", "setting": "P31/Fuj cells; control cells versus LSD1i pre-treated cells (FIG. 6G, 19A)", "value": "not in cells pre-treated with LSD1i"}, {"measurement": "differentiation and cytotoxic response in combination with all-trans retinoic acid (ATRA)", "setting": "acute myeloid leukemia", "value": "enhances differentiation and promotes cytotoxic response"}, {"measurement": "effect on normal stem/progenitor cell compartment", "setting": "[2]; LSD1i 5 days then MEKi 3 days", "value": "preserved the normal stem/progenitor cell compartment"}, {"measurement": "apoptosis (Annexin V) in healthy haematopoietic cells", "setting": "[2]; LSD1i 5 days then MEKi 3 days, mostly restricted to the more mature CD34-negative cells (FIG. 11D, 12)", "value": "increased apoptosis"}, {"measurement": "expression of differentiation markers, such as CD11b and CD14", "setting": "[2]; [6]", "value": "increase"}, {"measurement": "proportion of CD34-positive cells", "setting": "[2]; [6]", "value": "no effect"}]}]}
